Measured values from ChEMBL document CHEMBL4800728, “Data for DCP probe JNJ-54119936” (2021).

Legend:
[1] = target: Sodium-dependent dopamine transporter (Homo sapiens) (UniProt Q01959); settings: Compound concentration 10.0 uM
[2] = target: D(1A) dopamine receptor (Homo sapiens) (UniProt P21728); settings: Compound concentration 10.0 uM
[3] = target: 5-hydroxytryptamine receptor 3A (Homo sapiens) (UniProt P46098); settings: Compound concentration 10.0 uM
[4] = target: Melanocortin receptor 4 (Homo sapiens) (UniProt P32245); test: MC4 (h) CEREP screen; settings: Compound concentration 10.0 uM
Chain of Melanocortin receptor 4 (Homo sapiens) (P32245 whole entry): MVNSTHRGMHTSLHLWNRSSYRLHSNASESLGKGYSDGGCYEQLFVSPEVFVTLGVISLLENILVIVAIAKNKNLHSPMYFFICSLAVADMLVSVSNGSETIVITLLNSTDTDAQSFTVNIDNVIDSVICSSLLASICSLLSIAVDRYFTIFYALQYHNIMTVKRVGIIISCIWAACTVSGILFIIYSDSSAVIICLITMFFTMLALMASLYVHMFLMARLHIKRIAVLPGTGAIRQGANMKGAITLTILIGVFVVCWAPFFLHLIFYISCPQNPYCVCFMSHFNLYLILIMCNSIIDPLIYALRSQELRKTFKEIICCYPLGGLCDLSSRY

[5] = target: Substance-K receptor (Homo sapiens) (UniProt P21452); test: NK2 (h) CEREP screen; settings: Compound concentration 10.0 uM
[6] = target: Casein kinase II subunit alpha' (Homo sapiens) (UniProt P19784); test: CK2alpha2 Invitrogen kinase panel; settings: Compound concentration 10.0 uM
[7] = target: T1, Glucocorticoid receptor (Homo sapiens) (UniProt P04150); test: (§1) GR In-house nuclear receptor screen; settings: Compound concentration 3.0 uM
T1 sequence (whole entry): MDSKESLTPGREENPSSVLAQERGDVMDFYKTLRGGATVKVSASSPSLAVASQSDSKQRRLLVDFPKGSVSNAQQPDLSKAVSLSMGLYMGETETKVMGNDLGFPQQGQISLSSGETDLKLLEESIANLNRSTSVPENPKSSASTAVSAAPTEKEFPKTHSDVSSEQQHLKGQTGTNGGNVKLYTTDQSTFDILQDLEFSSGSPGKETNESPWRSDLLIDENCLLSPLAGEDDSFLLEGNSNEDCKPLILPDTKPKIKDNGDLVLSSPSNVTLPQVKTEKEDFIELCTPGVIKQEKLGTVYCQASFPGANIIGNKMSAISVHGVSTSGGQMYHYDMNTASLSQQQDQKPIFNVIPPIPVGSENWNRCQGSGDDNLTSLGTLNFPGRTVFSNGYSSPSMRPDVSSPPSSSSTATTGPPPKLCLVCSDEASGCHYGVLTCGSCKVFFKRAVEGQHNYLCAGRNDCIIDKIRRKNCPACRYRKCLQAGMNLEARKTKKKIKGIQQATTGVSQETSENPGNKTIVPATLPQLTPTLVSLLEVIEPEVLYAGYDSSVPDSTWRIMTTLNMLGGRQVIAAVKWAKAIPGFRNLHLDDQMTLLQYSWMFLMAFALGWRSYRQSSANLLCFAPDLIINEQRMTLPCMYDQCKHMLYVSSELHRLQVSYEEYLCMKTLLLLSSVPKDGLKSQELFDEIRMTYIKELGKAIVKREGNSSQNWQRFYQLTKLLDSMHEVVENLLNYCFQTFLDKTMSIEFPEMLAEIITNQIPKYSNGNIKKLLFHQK

[8] = target: Glucocorticoid receptor (Homo sapiens, UniProt P04150); test: as §1
[9] = target: Delta-type opioid receptor (Homo sapiens) (UniProt P41143); test: Delta2 (h) CEREP screen; settings: Compound concentration 10.0 uM
Chain of Delta-type opioid receptor (Homo sapiens) (P41143 whole entry): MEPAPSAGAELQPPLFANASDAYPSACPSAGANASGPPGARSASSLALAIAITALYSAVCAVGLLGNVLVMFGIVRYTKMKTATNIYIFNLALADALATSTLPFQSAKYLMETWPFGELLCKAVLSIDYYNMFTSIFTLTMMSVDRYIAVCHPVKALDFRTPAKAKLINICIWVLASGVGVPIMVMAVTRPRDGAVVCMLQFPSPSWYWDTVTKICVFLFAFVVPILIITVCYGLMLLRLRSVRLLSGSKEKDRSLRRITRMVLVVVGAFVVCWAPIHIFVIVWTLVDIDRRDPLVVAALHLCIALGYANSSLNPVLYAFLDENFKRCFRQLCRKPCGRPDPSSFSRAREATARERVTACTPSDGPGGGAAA

[10] = target: Delta-type opioid receptor (Homo sapiens) (UniProt P41143); settings: Compound concentration 10.0 uM
[11] = target: Alpha-1B adrenergic receptor (Homo sapiens) (UniProt P35368); settings: Compound concentration 10.0 uM
Chain of Alpha-1B adrenergic receptor (Homo sapiens) (P35368 whole entry): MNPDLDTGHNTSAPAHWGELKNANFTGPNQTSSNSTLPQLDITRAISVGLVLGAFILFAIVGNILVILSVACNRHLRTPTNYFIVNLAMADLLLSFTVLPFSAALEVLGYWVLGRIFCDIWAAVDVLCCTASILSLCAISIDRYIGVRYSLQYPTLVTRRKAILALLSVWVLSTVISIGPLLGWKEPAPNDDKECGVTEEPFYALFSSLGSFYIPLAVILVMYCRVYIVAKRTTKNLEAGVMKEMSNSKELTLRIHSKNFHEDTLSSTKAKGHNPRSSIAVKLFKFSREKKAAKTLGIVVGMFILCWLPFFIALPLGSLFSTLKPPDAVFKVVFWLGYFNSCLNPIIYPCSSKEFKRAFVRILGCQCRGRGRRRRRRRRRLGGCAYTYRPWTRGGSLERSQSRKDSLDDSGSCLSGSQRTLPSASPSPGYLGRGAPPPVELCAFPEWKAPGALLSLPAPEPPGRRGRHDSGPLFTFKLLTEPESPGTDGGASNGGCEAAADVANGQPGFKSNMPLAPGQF

[12] = target: Beta-3 adrenergic receptor (Homo sapiens) (UniProt P13945); settings: Compound concentration 10.0 uM
Chain of Beta-3 adrenergic receptor (Homo sapiens) (P13945 whole entry, looked up): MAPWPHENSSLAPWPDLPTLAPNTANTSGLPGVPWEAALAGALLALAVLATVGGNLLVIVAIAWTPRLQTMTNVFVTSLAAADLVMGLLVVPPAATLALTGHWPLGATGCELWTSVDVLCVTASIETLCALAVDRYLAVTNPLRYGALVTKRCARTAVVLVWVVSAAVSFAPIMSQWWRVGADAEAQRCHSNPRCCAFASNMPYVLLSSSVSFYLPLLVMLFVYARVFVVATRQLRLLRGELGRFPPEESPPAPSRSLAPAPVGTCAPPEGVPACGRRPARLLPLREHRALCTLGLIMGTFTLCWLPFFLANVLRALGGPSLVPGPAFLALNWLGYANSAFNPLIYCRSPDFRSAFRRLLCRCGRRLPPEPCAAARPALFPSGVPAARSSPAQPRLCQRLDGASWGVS

[13] = target: Alpha-1D adrenergic receptor (Homo sapiens) (UniProt P25100); settings: Compound concentration 10.0 uM
[14] = target: Kappa-type opioid receptor (Homo sapiens) (UniProt P41145); test: Kappa (KOP) (h) CEREP screen; settings: Compound concentration 10.0 uM
[15] = target: Estrogen receptor beta (Homo sapiens) (UniProt Q92731); test: ERbeta Indigo Bioscience nuclear receptor screen
Chain of Estrogen receptor beta (Homo sapiens) (Q92731 whole entry): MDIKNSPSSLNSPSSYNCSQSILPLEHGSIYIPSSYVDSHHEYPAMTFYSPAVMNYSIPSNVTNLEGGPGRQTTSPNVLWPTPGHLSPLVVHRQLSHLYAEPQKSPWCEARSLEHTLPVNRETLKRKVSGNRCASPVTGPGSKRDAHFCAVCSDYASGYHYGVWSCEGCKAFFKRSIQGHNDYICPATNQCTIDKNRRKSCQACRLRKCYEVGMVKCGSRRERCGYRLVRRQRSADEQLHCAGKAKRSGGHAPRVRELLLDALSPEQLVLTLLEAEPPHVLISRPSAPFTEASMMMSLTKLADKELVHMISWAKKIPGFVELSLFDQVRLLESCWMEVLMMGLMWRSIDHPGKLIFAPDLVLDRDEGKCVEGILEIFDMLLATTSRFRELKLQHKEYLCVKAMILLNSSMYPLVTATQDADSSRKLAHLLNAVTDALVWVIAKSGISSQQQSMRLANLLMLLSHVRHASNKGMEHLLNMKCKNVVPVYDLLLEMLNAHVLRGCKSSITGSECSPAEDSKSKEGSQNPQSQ

[16] = target: Serine/threonine-protein kinase Chk2 (Homo sapiens) (UniProt O96017); test: CHK2 Invitrogen kinase panel; settings: Compound concentration 10.0 uM
Chain of Serine/threonine-protein kinase Chk2 (Homo sapiens) (O96017 whole entry): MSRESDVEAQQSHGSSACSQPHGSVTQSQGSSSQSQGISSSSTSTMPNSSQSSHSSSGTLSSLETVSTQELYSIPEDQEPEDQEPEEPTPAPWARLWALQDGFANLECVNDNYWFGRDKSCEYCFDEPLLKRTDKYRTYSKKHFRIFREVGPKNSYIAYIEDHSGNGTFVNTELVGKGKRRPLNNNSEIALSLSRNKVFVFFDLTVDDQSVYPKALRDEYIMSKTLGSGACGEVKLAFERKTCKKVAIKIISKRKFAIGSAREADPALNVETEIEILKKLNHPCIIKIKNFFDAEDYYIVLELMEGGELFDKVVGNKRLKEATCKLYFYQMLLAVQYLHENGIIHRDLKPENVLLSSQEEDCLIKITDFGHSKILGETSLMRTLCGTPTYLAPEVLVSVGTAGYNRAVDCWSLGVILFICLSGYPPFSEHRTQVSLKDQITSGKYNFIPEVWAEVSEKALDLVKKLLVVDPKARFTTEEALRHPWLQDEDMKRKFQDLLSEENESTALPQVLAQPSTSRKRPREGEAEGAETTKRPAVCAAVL

[17] = target: Serine/threonine-protein kinase Nek2 (Homo sapiens) (UniProt P51955); test: NEK2 Invitrogen kinase panel; settings: Compound concentration 10.0 uM
[18] = target: Death-associated protein kinase 3 (Homo sapiens) (UniProt O43293); test: ZIPK Invitrogen kinase panel; settings: Compound concentration 10.0 uM
Chain of Death-associated protein kinase 3 (Homo sapiens) (O43293 whole entry, looked up): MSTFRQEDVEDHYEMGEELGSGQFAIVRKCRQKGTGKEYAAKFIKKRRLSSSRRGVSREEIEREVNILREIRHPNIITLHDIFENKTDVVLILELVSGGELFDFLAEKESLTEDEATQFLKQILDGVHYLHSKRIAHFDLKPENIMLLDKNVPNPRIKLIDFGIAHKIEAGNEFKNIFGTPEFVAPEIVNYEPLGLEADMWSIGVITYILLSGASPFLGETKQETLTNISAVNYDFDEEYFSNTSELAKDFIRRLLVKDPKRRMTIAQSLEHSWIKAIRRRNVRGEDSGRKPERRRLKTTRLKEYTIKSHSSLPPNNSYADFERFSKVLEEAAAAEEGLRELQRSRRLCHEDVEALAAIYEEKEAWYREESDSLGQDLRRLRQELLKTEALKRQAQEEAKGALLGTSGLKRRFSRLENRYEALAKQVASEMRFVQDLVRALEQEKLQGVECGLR

[19] = target: T2, Muscarinic acetylcholine receptor M1 (Homo sapiens) (UniProt P11229); settings: Compound concentration 10.0 uM
T2 sequence (whole entry): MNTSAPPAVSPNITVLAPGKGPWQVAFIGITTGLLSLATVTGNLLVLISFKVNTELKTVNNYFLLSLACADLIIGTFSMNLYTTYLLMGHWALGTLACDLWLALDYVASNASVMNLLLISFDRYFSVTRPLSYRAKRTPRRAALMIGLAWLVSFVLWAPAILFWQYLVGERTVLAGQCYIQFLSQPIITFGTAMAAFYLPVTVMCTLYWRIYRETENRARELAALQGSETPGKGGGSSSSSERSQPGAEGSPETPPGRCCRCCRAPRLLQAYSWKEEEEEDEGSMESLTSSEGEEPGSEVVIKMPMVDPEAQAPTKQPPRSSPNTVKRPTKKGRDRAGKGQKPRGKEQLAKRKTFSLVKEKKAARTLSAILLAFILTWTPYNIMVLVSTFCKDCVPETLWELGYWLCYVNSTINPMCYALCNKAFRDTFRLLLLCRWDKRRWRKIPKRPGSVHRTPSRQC

[20] = target: Calcium/calmodulin-dependent protein kinase type II subunit beta (Homo sapiens) (UniProt Q13554); test: CaMKIIbeta Invitrogen kinase panel; settings: Compound concentration 10.0 uM
Chain of Calcium/calmodulin-dependent protein kinase type II subunit beta (Homo sapiens) (Q13554 whole entry): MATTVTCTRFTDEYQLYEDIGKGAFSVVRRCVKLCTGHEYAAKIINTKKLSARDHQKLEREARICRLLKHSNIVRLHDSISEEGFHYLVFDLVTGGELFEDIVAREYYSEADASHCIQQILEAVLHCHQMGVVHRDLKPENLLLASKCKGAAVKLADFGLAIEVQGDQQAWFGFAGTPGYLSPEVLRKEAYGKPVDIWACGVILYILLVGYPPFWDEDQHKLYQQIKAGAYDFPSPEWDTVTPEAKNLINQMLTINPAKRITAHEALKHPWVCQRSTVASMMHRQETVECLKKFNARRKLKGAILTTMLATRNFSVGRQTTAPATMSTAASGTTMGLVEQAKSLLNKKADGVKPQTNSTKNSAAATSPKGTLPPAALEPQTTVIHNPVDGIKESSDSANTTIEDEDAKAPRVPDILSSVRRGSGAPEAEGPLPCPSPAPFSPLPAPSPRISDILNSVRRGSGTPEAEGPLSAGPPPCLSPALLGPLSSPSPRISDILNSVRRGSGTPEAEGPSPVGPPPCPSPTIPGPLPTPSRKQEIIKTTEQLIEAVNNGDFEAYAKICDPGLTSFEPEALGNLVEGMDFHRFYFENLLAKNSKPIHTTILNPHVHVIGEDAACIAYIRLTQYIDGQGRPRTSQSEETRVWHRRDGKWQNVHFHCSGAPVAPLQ

[21] = organism: Rattus norvegicus; settings: Compound concentration 10.0 uM
[22] = target: Melatonin receptor type 1A (Homo sapiens) (UniProt P48039); test: MT1 (ML1A) (h) CEREP screen; settings: Compound concentration 10.0 uM
[23] = target: Alpha-2A adrenergic receptor (Homo sapiens) (UniProt P08913); settings: Compound concentration 10.0 uM
[24] = target: Calcium/calmodulin-dependent protein kinase type 1D (Homo sapiens) (UniProt Q8IU85); test: CaMKIdelta Invitrogen kinase panel; settings: Compound concentration 10.0 uM
Chain of Calcium/calmodulin-dependent protein kinase type 1D (Homo sapiens) (Q8IU85 whole entry, looked up): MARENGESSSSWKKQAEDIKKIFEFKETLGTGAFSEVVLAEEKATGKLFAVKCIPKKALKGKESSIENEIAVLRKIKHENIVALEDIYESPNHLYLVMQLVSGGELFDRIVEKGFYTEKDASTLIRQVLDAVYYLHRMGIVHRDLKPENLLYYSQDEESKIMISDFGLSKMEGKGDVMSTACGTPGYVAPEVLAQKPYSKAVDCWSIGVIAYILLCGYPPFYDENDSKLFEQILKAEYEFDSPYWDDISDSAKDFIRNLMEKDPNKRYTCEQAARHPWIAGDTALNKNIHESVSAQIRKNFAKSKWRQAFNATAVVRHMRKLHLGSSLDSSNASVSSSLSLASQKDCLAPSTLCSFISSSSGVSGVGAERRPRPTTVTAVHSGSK

[25] = target: 5-hydroxytryptamine receptor 2B (Homo sapiens) (UniProt P41595); settings: Compound concentration 10.0 uM
[26] = target: Histamine H2 receptor (Homo sapiens) (UniProt P25021); settings: Compound concentration 10.0 uM

Chain of 5-hydroxytryptamine receptor 3A (Homo sapiens) (P46098 whole entry): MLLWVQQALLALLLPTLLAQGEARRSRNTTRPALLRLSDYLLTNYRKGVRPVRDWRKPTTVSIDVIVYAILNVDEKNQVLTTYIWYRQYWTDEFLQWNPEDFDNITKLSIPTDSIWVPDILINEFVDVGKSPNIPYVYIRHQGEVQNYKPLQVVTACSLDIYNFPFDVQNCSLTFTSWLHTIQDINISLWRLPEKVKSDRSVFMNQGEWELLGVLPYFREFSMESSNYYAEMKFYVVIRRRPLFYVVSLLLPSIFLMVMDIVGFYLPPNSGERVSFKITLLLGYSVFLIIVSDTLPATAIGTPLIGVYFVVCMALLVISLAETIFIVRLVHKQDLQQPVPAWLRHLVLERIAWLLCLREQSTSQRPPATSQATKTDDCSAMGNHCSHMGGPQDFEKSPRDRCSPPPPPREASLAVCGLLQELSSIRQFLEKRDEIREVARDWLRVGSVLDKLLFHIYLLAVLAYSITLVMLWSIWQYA

**Q.** What does the source list for `COc1nc2ccc([C@@](O)(c3ccccc3)C3CCN(C(C)=O)CC3)cc2c(Cl)c1Cc1ccc(-n2cccn2)cc1` [JNJ-54119936]?
**A.** inhibition [1]: 21%; inhibition [2]: 19.9%; inhibition [3]: 9.28%; inhibition [4]: 14%; inhibition [5]: 23%; inhibition [6]: 4%; inhibition [7]: 13%; IC50 [8]: ~6 µM; inhibition [9]: 11%; inhibition [10]: 7.18%; inhibition [11]: -4.69%; inhibition [12]: 39.4%; inhibition [13]: 6.64%; inhibition [14]: 12%; inhibition ([15]; Compound concentration 0.3 uM): 1.77%; inhibition ([15]; Compound concentration 1.0 uM): 7.87%; inhibition ([15]; Compound concentration 3.0 uM): 14.8%; inhibition [16]: 6%; inhibition [17]: 3%; inhibition [18]: 10%; inhibition [19]: 5.4%; inhibition [20]: 7%; inhibition [21]: 35.6%; inhibition [22]: 20%; inhibition [23]: 20.8%; inhibition [24]: 7%; inhibition [25]: 18.7%; inhibition [26]: -0.99%
